pIC50: −log10 of the molar value.
Key:
[1] = Toxicity in mouse assessed as brownish watery stool at 150 mg/kg; format: organism-based; settings: in vivo
HaCaT = test: Antiproliferative activity against human HaCaT cells assessed as inhibition of cell growth incubated for 72 hrs by SRB assay; format: cell-based
[2] = target: RAC-gamma serine/threonine-protein kinase (Homo sapiens, UniProt Q9Y243); test: Inhibition of AKT3 (unknown origin)
[3] = target: Protein kinase C eta type (Homo sapiens, UniProt P24723); test: Inhibition of PKCeta (unknown origin)
[4] = target: Protein kinase C theta type (Homo sapiens, UniProt Q04759); test: Inhibition of PKCtheta (unknown origin)
[5] = target: Ribosomal protein S6 kinase alpha-5 (Homo sapiens, UniProt O75582); test: Inhibition of MSK1 (unknown origin)
[6] = target: Cyclin-dependent kinase 2 (Homo sapiens, UniProt P24941); test: Inhibition of CDK2 (unknown origin)
Aurora kinase A = Aurora kinase A (Homo sapiens, UniProt O14965); test: Inhibition of Aurora A (unknown origin)
HepG2 = test: Antiproliferative activity against human HepG2 cells assessed as inhibition of cell growth incubated for 72 hrs by SRB method; format: functional, cell-based; settings: HepG2, 72 h
Bel-7402 = test: Antiproliferative activity against human Bel-7402 cells assessed as inhibition of cell growth incubated for 72 hrs by SRB method; format: functional, cell-based; settings: Bel-7402, 72 h
OS-RC-2 = test: Antiproliferative activity against human OS-RC-2 cells assessed as inhibition of cell growth incubated for 72 hrs by SRB method; format: functional, cell-based; settings: OS-RC-2, 72 h
PC-3 = test: Antiproliferative activity against human PC3 cells assessed as inhibition of cell growth incubated for 72 hrs by SRB method; format: functional, cell-based; settings: PC-3, 72 h
SK-OV-3 = test: Antiproliferative activity against human SK-OV-3 cells assessed as inhibition of cell growth incubated for 72 hrs by SRB method; format: functional, cell-based; settings: SK-OV-3, 72 h
OVCAR-8 = test: Antiproliferative activity against human OVCAR-8 cells assessed as inhibition of cell growth incubated for 72 hrs by SRB method; format: functional, cell-based; settings: OVCAR-8, 72 h
Cytochrome P450 2C8 = Cytochrome P450 2C8 (Homo sapiens, UniProt P10632); test: Inhibition of CYP2C8 (unknown origin); format: ADME
Cytochrome P450 2C9 = Cytochrome P450 2C9 (Homo sapiens, UniProt P11712); test: Inhibition of CYP2C9 (unknown origin); format: ADME
Cytochrome P450 3A4 = Cytochrome P450 3A4 (Homo sapiens, UniProt P08684); test: Inhibition of CYP3A4 (unknown origin); format: ADME
CYP2C19 = CYP2C19 (Homo sapiens, UniProt P33261); test: Inhibition of CYP2C19 (unknown origin) at 100 uM; format: ADME
[7] = Microsomal stability in rat liver microsomes assessed as intrinsic clearance at 50 uM preincubated for 5 mins with NADPH followed by compound addition and measured upto 60 mins by LC-MS/MS analysis; format: ADME, Microsome; settings: read-out: CLH
[8] = Half life in Sprague-Dawley rat at 2 mg/kg, iv measured upto 24 hrs by LC-MS/MS analysis; format: ADME, organism-based; settings: in vivo
[9] = Half life in Beagle dog at 20 mg/kg, ig measured upto 96 hrs by LC-MS/MS analysis; format: ADME, organism-based, Canis lupus familiaris; settings: in vivo, po
[10] = Cmax in Sprague-Dawley rat at 2 mg/kg, iv measured upto 24 hrs by LC-MS/MS analysis; format: ADME, organism-based; parameters: route intravenous, dose 2 mg/kg, time <=24; settings: in vivo
[11] = AUC(0 to infinity) in Sprague-Dawley rat at 15 mg/kg, ig measured upto 72 hrs by LC-MS/MS analysis; format: ADME, organism-based; parameters: route […], dose 15 mg/kg, time <=72; settings: in vivo, po
[12] = AUC(0 to infinity) in Sprague-Dawley rat at 2 mg/kg, iv measured upto 24 hrs by LC-MS/MS analysis; format: ADME, organism-based; parameters: route intravenous, dose 2 mg/kg, time <=24; settings: in vivo
[13] = AUC(0 to infinity) in Beagle dog at 20 mg/kg, ig measured upto 96 hrs by LC-MS/MS analysis; format: ADME, organism-based, Canis lupus familiaris; parameters: route […], dose 20 mg/kg, time <=96; settings: in vivo, po
[14] = Oral bioavailability in Sprague-Dawley rat measured upto 72 hrs by LC-MS/MS analysis; format: ADME, organism-based; settings: in vivo
[15] = Drug metabolism in po dosed Sprague-Dawley rat urine assessed as M1 metabolite formation measured upto 72 hrs by UPLC-TOF-MS/MS analysis; format: ADME, organism-based; settings: in vivo
[16] = Drug metabolism in po dosed Sprague-Dawley rat bile assessed as M1 metabolite formation measured upto 24 hrs by UPLC-TOF-MS/MS analysis; format: ADME, organism-based; settings: in vivo
[17] = Drug metabolism in po dosed Sprague-Dawley rat bile assessed as M3 metabolite formation measured upto 24 hrs by UPLC-TOF-MS/MS analysis; format: ADME, organism-based; settings: in vivo
[18] = Drug metabolism in po dosed Sprague-Dawley rat bile assessed as M4 metabolite formation measured upto 24 hrs by UPLC-TOF-MS/MS analysis; format: ADME, organism-based; settings: in vivo
[19] = Toxicity in mouse assessed as death at 250 mg/kg; format: organism-based; settings: in vivo
[20] = Toxicity in Beagle dog assessed as maximum toxicity dose; parameters: species or system Canis lupus familiaris; settings: in vivo
[21] = Toxicity in Beagle dog assessed as thymic atrophy at 100 mg/kg; format: organism-based, Canis lupus familiaris; settings: in vivo
[22] = Toxicity in Sprague-Dawley rat assessed as appearance of scab on back skin at 25 to 75 mg/kg administered daily for 4 weeks; format: organism-based; settings: in vivo, 672 h, dose 25-75 mg/kg
[23] = Toxicity in Sprague-Dawley rat assessed as change in biochemical parameters at 25 to 75 mg/kg administered daily for 4 weeks; format: organism-based; settings: in vivo, 672 h, dose 25-75 mg/kg
[24] = Toxicity in Sprague-Dawley rat assessed as effect on stomach at 25 to 75 mg/kg administered daily for 4 weeks by histopathological analysis; format: organism-based; settings: in vivo, 672 h, dose 25-75 mg/kg
[25] = Toxicity in Sprague-Dawley rat assessed as effect on jejunum at 25 to 75 mg/kg administered daily for 4 weeks by histopathological analysis; format: organism-based; settings: in vivo, 672 h, dose 25-75 mg/kg
[26] = Toxicity in Sprague-Dawley rat assessed as effect on thymus at 25 to 75 mg/kg administered daily for 4 weeks by histopathological analysis; format: organism-based; settings: in vivo, 672 h, dose 25-75 mg/kg
[27] = Toxicity in Sprague-Dawley rat assessed as effect on uterus at 25 to 75 mg/kg administered daily for 4 weeks by histopathological analysis; format: organism-based; settings: in vivo, 672 h, dose 25-75 mg/kg
[28] = Toxicity in Sprague-Dawley rat assessed as effect on thyroid at 25 to 75 mg/kg administered daily for 4 weeks by histopathological analysis; format: organism-based; settings: in vivo, 672 h, dose 25-75 mg/kg
[29] = Toxicity in BALB/c nude mouse xenografted with human KHOS cells assessed as mortality at 12.5 to 50 mg/kg, ig administered once daily for 22 days; format: organism-based; settings: in vivo, po, 528 h, dose 12.5-50 mg/kg, time 22 day

Chain of Cytochrome P450 3A4 (P08684 whole entry): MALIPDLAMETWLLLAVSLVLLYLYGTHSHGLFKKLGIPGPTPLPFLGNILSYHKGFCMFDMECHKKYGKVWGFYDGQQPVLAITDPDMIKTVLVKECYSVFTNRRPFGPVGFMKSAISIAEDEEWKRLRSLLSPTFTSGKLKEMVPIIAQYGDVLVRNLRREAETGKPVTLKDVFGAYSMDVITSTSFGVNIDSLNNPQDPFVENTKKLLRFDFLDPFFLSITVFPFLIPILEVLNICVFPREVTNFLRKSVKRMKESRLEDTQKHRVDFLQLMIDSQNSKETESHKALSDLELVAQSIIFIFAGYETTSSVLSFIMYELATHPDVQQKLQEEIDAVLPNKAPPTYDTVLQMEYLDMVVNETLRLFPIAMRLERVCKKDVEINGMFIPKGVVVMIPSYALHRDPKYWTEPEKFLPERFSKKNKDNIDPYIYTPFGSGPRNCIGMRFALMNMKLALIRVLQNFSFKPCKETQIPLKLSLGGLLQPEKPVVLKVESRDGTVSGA
Chain of Aurora kinase A (O14965 whole entry): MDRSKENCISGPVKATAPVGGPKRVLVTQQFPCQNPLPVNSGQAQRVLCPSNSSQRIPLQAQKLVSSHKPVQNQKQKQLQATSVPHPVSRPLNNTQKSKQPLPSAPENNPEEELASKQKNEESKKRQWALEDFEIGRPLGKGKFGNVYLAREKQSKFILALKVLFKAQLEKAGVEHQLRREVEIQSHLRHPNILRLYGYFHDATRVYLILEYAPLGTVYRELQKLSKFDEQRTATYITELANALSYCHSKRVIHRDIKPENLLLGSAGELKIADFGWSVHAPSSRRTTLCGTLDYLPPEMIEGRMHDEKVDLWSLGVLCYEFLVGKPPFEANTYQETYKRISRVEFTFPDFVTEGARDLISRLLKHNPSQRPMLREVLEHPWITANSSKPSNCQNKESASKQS
Chain of Cytochrome P450 2C9 (P11712 whole entry): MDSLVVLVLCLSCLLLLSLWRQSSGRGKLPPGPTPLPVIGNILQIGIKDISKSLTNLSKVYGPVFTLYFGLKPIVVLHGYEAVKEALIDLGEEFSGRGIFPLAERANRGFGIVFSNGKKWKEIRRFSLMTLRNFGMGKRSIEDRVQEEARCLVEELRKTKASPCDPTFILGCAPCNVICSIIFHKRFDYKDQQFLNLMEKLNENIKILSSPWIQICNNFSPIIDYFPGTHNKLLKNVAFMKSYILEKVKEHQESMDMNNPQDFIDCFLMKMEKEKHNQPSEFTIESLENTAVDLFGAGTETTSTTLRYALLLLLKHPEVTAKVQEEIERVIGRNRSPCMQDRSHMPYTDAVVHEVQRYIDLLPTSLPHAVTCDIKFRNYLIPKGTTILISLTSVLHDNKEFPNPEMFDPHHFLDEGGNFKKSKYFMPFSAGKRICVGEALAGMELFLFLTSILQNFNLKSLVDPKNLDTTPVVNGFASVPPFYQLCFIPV
Chain of Ribosomal protein S6 kinase alpha-5 (O75582 whole entry): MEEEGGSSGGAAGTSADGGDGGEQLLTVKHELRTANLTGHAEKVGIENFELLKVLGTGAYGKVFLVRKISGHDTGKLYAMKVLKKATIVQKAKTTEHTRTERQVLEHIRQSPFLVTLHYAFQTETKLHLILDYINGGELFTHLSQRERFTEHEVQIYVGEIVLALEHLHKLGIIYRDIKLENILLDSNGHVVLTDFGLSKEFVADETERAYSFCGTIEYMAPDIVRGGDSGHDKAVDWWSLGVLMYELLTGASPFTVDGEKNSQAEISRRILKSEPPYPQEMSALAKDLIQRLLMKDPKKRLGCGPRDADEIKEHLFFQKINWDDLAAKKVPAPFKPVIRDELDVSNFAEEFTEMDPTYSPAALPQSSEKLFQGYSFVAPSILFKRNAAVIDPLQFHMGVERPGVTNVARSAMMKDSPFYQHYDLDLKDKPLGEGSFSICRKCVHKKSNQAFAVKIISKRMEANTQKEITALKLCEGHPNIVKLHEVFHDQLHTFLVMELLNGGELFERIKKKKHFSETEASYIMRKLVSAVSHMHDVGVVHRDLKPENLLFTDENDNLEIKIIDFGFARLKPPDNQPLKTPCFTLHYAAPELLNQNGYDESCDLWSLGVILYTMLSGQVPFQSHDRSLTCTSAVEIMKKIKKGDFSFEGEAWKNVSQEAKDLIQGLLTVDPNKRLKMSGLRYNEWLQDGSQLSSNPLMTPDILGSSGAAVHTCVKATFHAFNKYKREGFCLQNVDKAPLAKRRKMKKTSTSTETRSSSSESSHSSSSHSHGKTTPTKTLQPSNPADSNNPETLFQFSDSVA
Chain of Protein kinase C theta type (Q04759 whole entry): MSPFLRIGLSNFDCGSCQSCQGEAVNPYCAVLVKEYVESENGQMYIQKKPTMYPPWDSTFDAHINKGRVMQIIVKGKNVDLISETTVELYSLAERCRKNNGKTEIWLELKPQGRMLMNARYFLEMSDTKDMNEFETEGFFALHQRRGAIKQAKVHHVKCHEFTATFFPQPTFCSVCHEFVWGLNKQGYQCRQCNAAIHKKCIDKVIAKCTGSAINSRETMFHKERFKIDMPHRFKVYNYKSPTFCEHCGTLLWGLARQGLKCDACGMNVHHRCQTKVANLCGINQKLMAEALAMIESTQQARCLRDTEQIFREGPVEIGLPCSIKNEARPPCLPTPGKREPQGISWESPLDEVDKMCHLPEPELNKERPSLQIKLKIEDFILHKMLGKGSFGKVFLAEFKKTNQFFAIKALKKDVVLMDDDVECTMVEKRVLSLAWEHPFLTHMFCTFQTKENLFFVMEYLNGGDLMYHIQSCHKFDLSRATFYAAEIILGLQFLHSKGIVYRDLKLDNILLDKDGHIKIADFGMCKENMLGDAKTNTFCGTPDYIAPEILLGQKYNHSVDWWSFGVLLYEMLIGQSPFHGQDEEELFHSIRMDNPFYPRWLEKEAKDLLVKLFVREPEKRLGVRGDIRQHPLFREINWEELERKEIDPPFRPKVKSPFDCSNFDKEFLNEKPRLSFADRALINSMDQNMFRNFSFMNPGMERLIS
Chain of RAC-gamma serine/threonine-protein kinase (Q9Y243 whole entry): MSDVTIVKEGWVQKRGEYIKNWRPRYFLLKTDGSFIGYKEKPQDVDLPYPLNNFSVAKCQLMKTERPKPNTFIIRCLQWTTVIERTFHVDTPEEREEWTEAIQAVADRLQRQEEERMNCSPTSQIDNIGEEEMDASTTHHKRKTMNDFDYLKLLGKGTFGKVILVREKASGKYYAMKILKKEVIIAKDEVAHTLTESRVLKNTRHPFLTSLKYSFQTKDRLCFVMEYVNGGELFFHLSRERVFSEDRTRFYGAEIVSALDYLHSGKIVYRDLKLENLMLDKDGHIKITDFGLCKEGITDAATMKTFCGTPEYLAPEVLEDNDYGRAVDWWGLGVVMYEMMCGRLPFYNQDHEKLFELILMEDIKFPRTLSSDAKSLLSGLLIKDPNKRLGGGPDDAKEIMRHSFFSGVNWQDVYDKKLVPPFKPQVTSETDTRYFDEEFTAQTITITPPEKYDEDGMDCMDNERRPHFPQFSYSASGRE
Chain of Protein kinase C eta type (P24723 whole entry): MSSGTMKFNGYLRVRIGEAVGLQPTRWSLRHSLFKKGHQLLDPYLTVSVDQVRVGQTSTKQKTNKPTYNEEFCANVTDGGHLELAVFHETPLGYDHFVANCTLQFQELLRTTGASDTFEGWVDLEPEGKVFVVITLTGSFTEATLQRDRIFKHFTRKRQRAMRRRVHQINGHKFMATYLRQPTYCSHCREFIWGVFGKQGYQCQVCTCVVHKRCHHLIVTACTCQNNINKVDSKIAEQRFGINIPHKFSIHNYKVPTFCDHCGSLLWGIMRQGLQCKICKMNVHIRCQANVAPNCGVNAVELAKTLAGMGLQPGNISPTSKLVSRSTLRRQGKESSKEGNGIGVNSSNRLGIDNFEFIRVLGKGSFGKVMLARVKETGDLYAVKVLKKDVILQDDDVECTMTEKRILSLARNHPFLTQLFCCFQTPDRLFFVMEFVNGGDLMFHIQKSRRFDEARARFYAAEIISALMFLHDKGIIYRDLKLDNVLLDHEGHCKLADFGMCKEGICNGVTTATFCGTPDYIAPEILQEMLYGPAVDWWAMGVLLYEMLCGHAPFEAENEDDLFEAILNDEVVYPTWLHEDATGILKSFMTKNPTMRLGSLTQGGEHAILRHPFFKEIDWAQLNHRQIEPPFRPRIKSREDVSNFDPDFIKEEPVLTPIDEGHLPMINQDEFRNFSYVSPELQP
Chain of Cytochrome P450 2C8 (P10632 whole entry): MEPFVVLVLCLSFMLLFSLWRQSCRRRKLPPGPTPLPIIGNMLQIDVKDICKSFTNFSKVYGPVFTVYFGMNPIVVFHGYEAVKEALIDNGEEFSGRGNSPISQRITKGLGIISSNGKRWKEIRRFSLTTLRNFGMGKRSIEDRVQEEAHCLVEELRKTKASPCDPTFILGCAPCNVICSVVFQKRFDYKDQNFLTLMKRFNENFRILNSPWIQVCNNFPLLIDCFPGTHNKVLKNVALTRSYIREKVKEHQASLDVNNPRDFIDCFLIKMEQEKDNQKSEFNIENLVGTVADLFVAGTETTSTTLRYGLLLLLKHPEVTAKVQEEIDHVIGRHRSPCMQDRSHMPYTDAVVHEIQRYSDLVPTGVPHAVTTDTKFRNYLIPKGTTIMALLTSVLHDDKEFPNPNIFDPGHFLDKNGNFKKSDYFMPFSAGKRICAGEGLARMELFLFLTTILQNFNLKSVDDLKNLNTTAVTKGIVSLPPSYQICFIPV

With `Cl.Cn1nccc1-c1ccc(C(=O)N[C@@H]2CNCC[C@H]2c2ccc(F)c(F)c2)c(F)c1` the Activity [1] was “Toxic”, the pIC50 (HaCaT) was 4.82 and the pIC50 [2] was 7.55. It also gave a pIC50 [3] of less than 5.70, a pIC50 [4] of 6.20 and a pIC50 [5] of less than 5.00. It also gave a pIC50 [6] of less than 5.00, a pIC50 (Aurora kinase A) of less than 5.00 and a pIC50 (HepG2) of 5.44. For the same compound, the pIC50 (Bel-7402) was 4.57, the pIC50 (OS-RC-2) was 5.00 and the pIC50 (PC-3) was 5.06. It also gave a pIC50 (SK-OV-3) of 5.33, a pIC50 (OVCAR-8) of 5.45 and a pIC50 (Cytochrome P450 2C8) of less than 4.00. For the same compound, the pIC50 (Cytochrome P450 2C9) was less than 4.00, the pIC50 (Cytochrome P450 3A4) was less than 4.00 and the inhibition at 100 µM (CYP2C19) was 65%. It also gave a microsomal CLint at 50 µM [7] of 20 µL/min/mg, a half-life [8] of 6.24 h and a half-life [9] of 16.7 h. For the same compound, the Cmax [10] was 208 ng/mL, the AUC(0-inf) [11] was 2820 ng·h/mL and the AUC(0-inf) [12] was 533 ng·h/mL. The AUC(0-inf) [13] was 36300 ng·h/mL, the bioavailability [14] was 66.2% and the Drug metabolism [15] was “Metabolite_Detected”. The Drug metabolism [16] was “Metabolite_Detected”, the Drug metabolism [17] was “Metabolite_Detected” and the Drug metabolism [18] was “Metabolite_Detected”. For the same compound, the Activity [19] was “Toxic”, the MTD [20] was 100 mg/kg and the Activity [21] was “Toxic”. For the same compound, the Activity [22] was “Non-Toxic”, the Activity [23] was “Non-Toxic” and the Activity [24] was “Non-Toxic”. For the same compound, the Activity [25] was “Non-Toxic”, the Activity [26] was “Non-Toxic” and the Activity [27] was “Non-Toxic”. The Activity [28] was “Non-Toxic” and the Activity [29] was “Non-Toxic”.

— ChEMBL document CHEMBL4828735, “Discovery of N-((3S,4S)-4-(3,4-Difluorophenyl)piperidin-3-yl)-2-fluoro-4-(1-methyl-1H-pyrazol-5-yl)benzamide (Hu7691), a Potent and Selective Akt Inhibitor That Enables Decrease of Cutaneous Toxicity” (J Med Chem, 2021)
